Experimental data from patent publication US6607885B1, “Method for high-density microarray medicated gene expression profiling” (priority 1999, dated 2003).

Experiments:
Format in all cases: cell-based, Escherichia coli
E. coli strain MG1655 = assay: MMC exposure, gene expression profile of MG1655
Method: (§1) Strains E. coli strain, MG1655, was used to determine the gene expression profile of E. coli in response to a MMC challenge. Two isogenic E. coli strains (Mount et al, J. Bacteriol. 112:886-893 (1972)), DM800 (lexA^+), used as control displaying a normal response to DNA damage, and DM803 (lexA^ind), a strain unable to mount the predominant “SOS” response to DNA damage, were compared using comprehensive gene expression profiling.
(§2) MMC experiment MG1655 cells were grown in LB overnight with aeration. The overnight cultures were diluted 100 fold in LB to final volume of 500 mL and grown at 37° C. to exponential phase. 200 mL of culture was treated with MMC to the final concentration of 250 ng/mL. Another 200 mL of culture were mock treated without MMC for comparison. Cells were harvested at 15 min and 40 min for MG1655 strain. With DM800 and DM803 stains, cells, cultured in an identical manner, were harvested after 40 min exposure. RNA was isolated and gene expression profile was analyzed as shown in Examples 1 and 2.

E. coli DM800 (lexA+) = assay: MMC exposure, gene expression profile of DM800 (lexA+); details: MMC for 40 min
Method: as §1, §2

E. coli DM803 (lexAind) = assay: MMC exposure, gene expression profile of DM803 (lexAind); details: MMC for 40 min
Method: as §1, §2

E. coli MG1655 = assay: IPTG induction, micro-array gene expression profiling
Method: E. coli MG1655 was cultured with aeration in either the minimal medium, M9 (Miller, J. H., Experiments in Molecular Genetics, Cold Spring Harbor (1972)), supplemented with 0.4% glucose or in the rich medium, LB (Miller, J. H., Experiments in Molecular Genetics, Cold Spring Harbor (1972)), at 37° C. The overnight culture was diluted 250 fold into fresh medium and aerated by shaking at 37° C. Samples of the minimal medium culture were harvested at A600=0.40 (exponential phase) and 1.6 (transition to stationary phase) prior to RNA isolation. An IPTG induction (Miller, J. H., Experiments in Molecular Genetics, Cold Spring Harbor (1972)) was performed to examine the specificity with which it effects gene expression. A culture grown overnight in LB at 37° C. was diluted 250 fold into fresh LB and aerated at 37° C. When the culture achieved an appropriate density (A600=0.40), it was split. To one portion was added IPTG to a final concentration of 1 mM; the untreated sample served as a control. Incubation of both samples was continued with aeration at 37° C. for another 15 min (A600=0.45 for both cultures) before RNA isolation was initiated.
RNA Isolation. An equivalent volume of shaved ice was added to 50 mL samples which were pelleted immediately in a refrigerated centrifuge by spinning at 10,410×g for 2 min. Each resultant pellet was resuspended in a mixture containing 100 μL of Tris HCl (10 mM, pH 8.0) and 350 μL of β-mercaptoethanol supplemented RLT buffer [Qiagen RNeasy Mini Kit, Valencia, Calif.]. The cell suspension was added to a chilled 2 mL screwed-capped microfuge tube containing 100 μL of 0.1 mm zirconia/silica beads (Biospec Product Inc., Bartlesville, Okla.). The cells were broken by agitation at room temperature for 25 sec with a Mini-Beadbeater™ (Biospec Products Inc., Bartlesville, Okla.). Debris was pelleted by centrifugation for 3 min at 16,000×g and 4° C.; the resultant supernatant was mixed with 250 μL of ethanol. This mixture was loaded onto a column from the Qiagen RNeasy Mini Kit. RNA isolation was completed using the protocol supplied with this kit. Incubation for 1 hr. at 37° C. in 40 mM Tris pH 8.0, 10 mM NaCl, 6 mM MgCl2 with RNase free RQ1 DNase (1 unit/μL, Promega, Madison, Wis.) digested any genomic DNA contaminating the RNA preparation. The digestion products were purified by a second passage through the RNeasy protocol (Qiagen, Valencia, Calif.). The product was eluted from the column in 50 μL RNAse-free water prior to determining sample concentration by an A260 reading. RNA preparations were stored frozen at either −20 or −80° C.
Synthesis of fluorescent cDNA from total RNA. Six microgram of RNA template and 12 μg of random hexamer primers (Operon Technologies, Inc., Alameda, Calif.) were diluted with double distilled (dd) water to a volume of 22 μL. Annealing was accomplished by incubation at 70° C. for 10 min followed by 10 min at room temperature. In order were added: 8 μL of 5×SuperScript II reaction buffer (Life Technologies, Inc., Gaithersberg, Md.), 4 μL of 0.1 M DTT, 2 μL of the dNTP mix (2 mM dATP, 2 mM dGTP, 2 mM TTP, 1 mM dCTP), 2 μL of 0.5 mM Cy3- or Cy5-dCTP (Amersham Pharmacia Biotech, Arlington Heights, Ill.), and 2 μL of SuperScript II reverse transcriptase ([…], Life Technologies Inc., Gaithersberg, Md.). DNA synthesis proceeded at 42° C. for 2.5 hr. before the reaction was terminated by heating at 94° C. for 5 min. Alkaline hydrolysis of the RNA templates was achieved by adding 2 μL of 5M NaOH followed by incubation at 37° C. for 10 min. Hydrolysis was terminated by the sequential addition of 3 μL of 5M HCl and 5 μL of 1M Tris-HCl, pH 6.8. The labeled cDNA was purified with a PCR purification kit (Qiagen, Valencia, Calif.), dried in a speed vacuum and stored at −20° C. Labeling efficiency was monitored using either A550, for Cy3 incorporation, or A650, for Cy5 labeling, to A260 ratios.
Hybridization and washing. […]

Row | Compound | number of genes with expression elevated greater than 2 fold relative to the control (E. coli strain MG1655; 40 min exposure, MMC 250 ng/mL) | number of stress response genes induced more than 2 fold (E. coli strain MG1655; 40 min exposure, recN, dinI, sulA, lexA, recA, uvrA, dinD, priC, umuC, mioC, uvrB, ruvA, xseA) | SOS response (E. coli strain MG1655; cells harvested at 15 min post exposure, MMC 250 ng/mL) | induction of SOS responsive genes (E. coli DM800 (lexA+)) | induction of dicB, dicC, sdiA, cheW, motA, cycA, fadL, chaC, codB and btuC (E. coli DM800 (lexA+)) | induction of SOS responsive genes, including lexA (E. coli DM803 (lexAind)) | induction of dicB, dicC, sdiA, cheW, motA, cycA, fadL, chaC, codB and btuC (E. coli DM803 (lexAind)) | number of genes whose expression increased by a factor of more than 2 (E. coli MG1655; 1 mM IPTG for 15 min) | two-fold or greater repression of arrayed genes (E. coli MG1655; 1 mM IPTG for 15 min) | fold IPTG induction of b0956/ycbG (E. coli MG1655; gene b0956/ycbG (hydrogenase?), 1 mM IPTG, 15 min, LB, 37° C.) | fold IPTG induction of b1783/yeaG (E. coli MG1655; gene b1783/yeaG, 1 mM IPTG, 15 min, LB, 37° C.) | fold IPTG induction of b2324 (E. coli MG1655; gene b2324 (peptidase?), 1 mM IPTG, 15 min, LB, 37° C.) | fold IPTG induction of lacA (E. coli MG1655; gene lacA (thiogalactoside acyltransferase), 1 mM IPTG, 15 min, LB, 37° C.) | fold IPTG induction of lacY (E. coli MG1655; gene lacY (galactoside permease), 1 mM IPTG, 15 min, LB, 37° C.) | fold IPTG induction of lacZ (E. coli MG1655; gene lacZ (galactosidase), 1 mM IPTG, 15 min, LB, 37° C.) | fold IPTG induction of melA (E. coli MG1655; gene melA (galactosidase), 1 mM IPTG, 15 min, LB, 37° C.) | fold IPTG induction of uxaA (E. coli MG1655; gene uxaA (altronate hydrolase), 1 mM IPTG, 15 min, LB, 37° C.)
1 | CO[C@@]12[C@H](COC(N)=O)C3=C(C(=O)C(C)=C(N)C3=O)N1C[C@@H]1N[C@@H]12 [MMC, mitomycin C] | 40 genes | 13 genes | very little | greater than 2 fold | not induced | not induced | greater than 2 fold | – | – | – | – | – | – | – | – | – | –
2 | CC(C)S[C@@H]1O[C@H](CO)[C@H](O)[C@H](O)[C@H]1O [IPTG, isopropylthiogalactoside] | – | – | – | – | – | – | – | 8 genes | not observed | 2.5 fold | 3.6 fold | 5.3 fold | 36 fold | 14 fold | 29 fold | 2.9 fold | 4.0 fold
